Target: T1, HPK1 (Homo sapiens, UniProt Q92918)
T1 construct: A HiBiT tag was introduced by CRISPR on the N terminus of HPK1 in Jurkat cells; host or cells: Jurkat cells (ATCC TIB-152), monoclonal line with CRISPR knock-in of HiBiT at the endogenous HPK1 locus
Assay: HPK1 Cellular HiBit Degradation Assay
Assay type: cell-based
Details: HiBiT HPK1 Jurkat cells, 24 hrs; for DC50: concentration at which 50% of HPK1 was remaining, read-out: DC50 Category; for Dmax: Jurkat, maximum degradation vs DMSO vehicle control, read-out: Dmax Category
In short: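 Jurkat cells with CRISPR knock-in N-terminal HiBiT-HPK1 were treated with CTMs (11-point, 3.16-fold, 10 uM to 0.1 nM final) for 24 hrs at 37° C. HiBiT lytic luminescence, with parental Jurkat as background and DMSO as 100%, gave % HPK1 remaining; four-parameter fit yielded DC50 and Dmax (100 minus lowest % remaining).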

T1 sequence (Q92918 whole entry): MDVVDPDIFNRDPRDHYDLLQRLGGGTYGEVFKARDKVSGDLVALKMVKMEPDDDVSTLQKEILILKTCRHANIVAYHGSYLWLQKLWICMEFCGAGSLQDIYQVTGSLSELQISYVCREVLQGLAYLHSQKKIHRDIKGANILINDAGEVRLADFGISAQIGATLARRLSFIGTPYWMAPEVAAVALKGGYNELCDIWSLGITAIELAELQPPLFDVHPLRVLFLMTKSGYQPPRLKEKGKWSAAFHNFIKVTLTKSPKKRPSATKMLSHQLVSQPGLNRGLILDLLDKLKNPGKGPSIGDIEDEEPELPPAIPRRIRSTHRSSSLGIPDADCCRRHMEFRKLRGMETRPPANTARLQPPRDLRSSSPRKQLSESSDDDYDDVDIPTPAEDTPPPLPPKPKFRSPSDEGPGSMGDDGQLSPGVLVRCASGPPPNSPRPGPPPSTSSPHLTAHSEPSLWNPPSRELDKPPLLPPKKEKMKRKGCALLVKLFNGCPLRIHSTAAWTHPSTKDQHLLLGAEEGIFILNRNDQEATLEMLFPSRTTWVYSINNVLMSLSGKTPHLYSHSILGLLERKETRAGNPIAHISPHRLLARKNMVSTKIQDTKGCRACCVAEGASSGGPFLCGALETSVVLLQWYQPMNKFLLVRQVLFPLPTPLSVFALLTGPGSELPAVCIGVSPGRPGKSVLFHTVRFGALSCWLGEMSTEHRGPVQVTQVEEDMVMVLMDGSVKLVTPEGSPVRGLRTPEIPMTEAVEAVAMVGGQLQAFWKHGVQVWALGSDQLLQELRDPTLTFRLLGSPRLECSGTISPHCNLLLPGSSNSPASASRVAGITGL

| SMILES | DC50 [µM] | Dmax [%] |
| --- | --- | --- |
| CC(C)n1cnc2cc(-c3ccc4c(c3)N([C@H]3C[C@@H](N5CCCCC5)C3)C(=O)C43CCN(C(=O)C4CCN(C(=O)C5CCN(c6ccc(N7CCC(=O)NC7=O)cc6)CC5)CC4)CC3)nc(Nc3ccccc3F)c21 [Example 70, 1-[4-(4-{4-[(6-{4-[(2-fluorophenyl)amino]-3-(propan-2-yl)-3H-imidazo[4,5-c]pyridin-6-yl}-2-oxo-1-[(1S,3S)-3-(piperidin-1-yl)cyclobutyl]-1,2-dihydrospiro[indole-3,4′-piperidin]-1′-yl)carbonyl]piperidine-1-carbonyl}piperidin-1-yl)phenyl]-1,3-diazinane-2,4-dione] | < 0.1 | > 85 |
| CC(C)n1cnc2cc(-c3ccc4c(c3)N([C@H]3C[C@@H](N5CCCCC5)C3)C(=O)C43CCN(C(=O)[C@@H]4CCN(C(=O)[C@H]5CC[C@H](Oc6ccc(C7CCC(=O)NC7=O)cn6)CC5)C4)CC3)nc(NC3CC3)c21 (mixture of isomers) [Example 16, (3RS)-3-(6-{[(1R,4R)-4-[(3R)-3-({6-[4-(cyclopropylamino)-3-(propan-2-yl)-3H-imidazo[4,5-c]pyridin-6-yl]-2-oxo-1-[(1S,3S)-3-(piperidin-1-yl)cyclobutyl]-1,2-dihydrospiro[indole-3,4′-piperidin]-1′-yl}carbonyl)pyrrolidine-1-carbonyl]cyclohexyl]oxy}pyridin-3-yl)piperidine-2,6-dione] | 0.5 to 1 | 70 to 85 |
| CC(C)n1cnc2cc(-c3ccc4c(c3)N([C@H]3C[C@@H](N5CCCCC5)C3)C(=O)C43CCN(C(=O)[C@H]4CC[C@@H](C(=O)N5CCC(Nc6ccc(C7CCC(=O)NC7=O)cn6)CC5)CC4)CC3)nc(Nc3ccccc3F)c21 (mixture of isomers) [Example 30, (3RS)-3-[6-({1-[(1S,4S)-4-[(6-{4-[(2-fluorophenyl)amino]-3-(propan-2-yl)-3H-imidazo[4,5-c]pyridin-6-yl}-2-oxo-1-[(1S,3S)-3-(piperidin-1-yl)cyclobutyl]-1,2-dihydrospiro[indole-3,4′-piperidin]-1′-yl)carbonyl]cyclohexanecarbonyl]piperidin-4-yl}amino)pyridin-3-yl]piperidine-2,6-dione] | < 0.1 | 70 to 85 |
| CC(C)n1cnc2cc(-c3ccc4c(c3)N([C@H]3C[C@@H](N5C6CCC5COC6)C3)C(=O)C43CCN(C(=O)C4(C)CCN(C(=O)[C@H]5CC[C@H](Oc6ccc(C7CCC(=O)NC7=O)cc6)CC5)CC4)CC3)nc(NC3CC3)c21 (mixture of isomers) [Example 193, (3RS)-3-(4-{[(1R,4R)-4-[4-({6-[4-(cyclopropylamino)-3-(propan-2-yl)-3H-imidazo[4,5-c]pyridin-6-yl]-2-oxo-1-[(1S,3S)-3-{3-oxa-8-Azabicyclo[3.2.1]octan-8-yl}cyclobutyl]-1,2-dihydrospiro[indole-3,4′-piperidin]-1′-yl}carbonyl)-4-methylpiperidine-1-carbonyl]cyclohexyl]oxy}phenyl)piperidine-2,6-dione] | 0.1 to 0.5 | 50 to 70 |
| CC(C)n1cnc2cc(-c3ccc4c(c3)N([C@H]3C[C@@H](N5CCCCC5)C3)C(=O)C43CCN(C(=O)C4CCN(C(=O)[C@H]5CC[C@H](Nc6cccc7c6C(=O)N(C6CCC(=O)NC6=O)C7=O)CC5)CC4)CC3)nc(NC3CC3)c21 (mixture of isomers) [Example 56, 2-[(3RS)-2,6-dioxopiperidin-3-yl]-4-{[(1R,4R)-4-[4-({6-[4-(cyclopropylamino)-3-(propan-2-yl)-3H-imidazo[4,5-c]pyridin-6-yl]-2-oxo-1-[(1S,3S)-3-(piperidin-1-yl)cyclobutyl]-1,2-dihydrospiro[indole-3,4′-piperidin]-1′-yl}carbonyl)piperidine-1-carbonyl]cyclohexyl]amino}-2,3-dihydro-1H-isoindole-1,3-dione] | 0.5 to 1 | 50 to 70 |

The remaining lines, values ahead:

| DC50 [µM] | Dmax [%] | SMILES |
| --- | --- | --- |
| < 0.1 | 70 to 85 | CC(C)n1cnc2cc(-c3ccc4c(c3)N([C@H]3C[C@@H](N5CCCCC5)C3)C(=O)C43CCN(C(=O)[C@@H]4CCN(C(=O)C5CCN(c6ccc(C7CCC(=O)NC7=O)cc6)CC5)C4)CC3)nc(NC3CC3)c21 (mixture of isomers) [Example 232, (3RS)-3-(4-{4-[(3R)-3-({6-[4-(cyclopropylamino)-3-(propan-2-yl)-3H-imidazo[4,5-c]pyridin-6-yl]-2-oxo-1-[(1S,3S)-3-(piperidin-1-yl)cyclobutyl]-1,2-dihydrospiro[indole-3,4′-piperidin]-1′-yl}carbonyl)pyrrolidine-1-carbonyl]piperidin-1-yl}phenyl)piperidine-2,6-dione] |
| < 0.1 | 50 to 70 | CC(C)n1cnc2cc(-c3ccc4c(c3)N([C@H]3C[C@@H](N5CCCCC5)C3)C(=O)C43CCN(C(=O)C4(C)CCN(C(=O)CN5CCN(c6ccc(C7CCC(=O)NC7=O)cn6)CC5)CC4)CC3)nc(NC3CC3)c21 (mixture of isomers) [Example 123, (3RS)-3-[6-(4-{2-[4-({6-[4-(cyclopropylamino)-3-(propan-2-yl)-3H-imidazo[4,5-c]pyridin-6-yl]-2-oxo-1-[(1S,3S)-3-(piperidin-1-yl)cyclobutyl]-1,2-dihydrospiro[indole-3,4′-piperidin]-1′-yl}carbonyl)-4-methylpiperidin-1-yl]-2-oxoethyl}piperazin-1-yl)pyridin-3-yl]piperidine-2,6-dione] |
| < 0.1 | 70 to 85 | CC(C)n1cnc2cc(-c3ccc4c(c3)N([C@H]3C[C@@H](N5CCCCC5)C3)C(=O)C43CCN(C(=O)CN4CCN(C(=O)C5CCN(c6ccc(C7CCC(=O)NC7=O)cn6)CC5)CC4)CC3)nc(NC3CC3)c21 (mixture of isomers) [Example 243, (3RS)-3-(6-{4-[4-(2-{6-[4-(cyclopropylamino)-3-(propan-2-yl)-3H-imidazo[4,5-c]pyridin-6-yl]-2-oxo-1-[(1S,3S)-3-(piperidin-1-yl)cyclobutyl]-1,2-dihydrospiro[indole-3,4′-piperidin]-1′-yl}-2-oxoethyl)piperazine-1-carbonyl]piperidin-1-yl}pyridin-3-yl)piperidine-2,6-dione] |
| < 0.1 | 70 to 85 | CC(C)n1cnc2cc(-c3ccc4c(c3)N([C@H]3C[C@@H](N5CCCCC5)C3)C(=O)C43CCN(C(=O)C4(C)CCN(C(=O)C5CCN(c6ccc(N7CCC(=O)NC7=O)cc6)CC5)CC4)CC3)nc(NC3CC3)c21 [Example 211, 1-(4-{4-[4-({6-[4-(cyclopropylamino)-3-(propan-2-yl)-3H-imidazo[4,5-c]pyridin-6-yl]-2-oxo-1-[(1S,3S)-3-(piperidin-1-yl)cyclobutyl]-1,2-dihydrospiro[indole-3,4′-piperidin]-1′-yl}carbonyl)-4-methylpiperidine-1-carbonyl]piperidin-1-yl}phenyl)-1,3-diazinane-2,4-dione] |
| 0.1 to 0.5 | 70 to 85 | CC(C)n1cnc2cc(-c3ccc4c(c3)N([C@H]3C[C@@H](N5CCCCC5)C3)C(=O)C43CCN(C(=O)C[C@H]4CCCN(C(=O)C5CCN(c6ccc(C7CCC(=O)NC7=O)cn6)CC5)C4)CC3)nc(NC3CC3)c21 (mixture of isomers) [Example 296, (3RS)-3-(6-{4-[(3R)-3-(2-{6-[4-(cyclopropylamino)-3-(propan-2-yl)-3H-imidazo[4,5-c]pyridin-6-yl]-2-oxo-1-[(1S,3S)-3-(piperidin-1-yl)cyclobutyl]-1,2-dihydrospiro[indole-3,4′-piperidin]-1′-yl}-2-oxoethyl)piperidine-1-carbonyl]piperidin-1-yl}pyridin-3-yl)piperidine-2,6-dione] |
